The source of these data is ChEMBL document CHEMBL5050834, “Cyclic trex1 inhibitors” (2021).

The experiment relates to MB49. Put plainly: Antitumor activity against mouse MB49 cells xenografted in female C57BL/6 mouse assessed as reduction in tumor volume at 100 ug, IT(Intratumoral) followed by 10 Gy gamma irradiation. Type of experiment: functional, cell-based. To be noted: dose 100.0 µg.

Molecules are shown by their SMILES. Activity calls are given as the source filed them. The calls are words filed in the database; no cut-off is given here.

As to `N[C@@H]1C[C@H]2C(=O)N([C@H](CCC(=O)O)C(=O)NCc3ccc(Cl)c(Cl)c3)CCC(CCc3ccccc3)N2C1` (stereo partly specified), the result was Active.
